The text below walks through data of ChEMBL document CHEMBL1649267, “Molecular epidemiology and mechanisms of carbapenem resistance in Pseudomonas aeruginosa” (2009).

Assay type in all cases: functional
Experiment [1] has as its system Pseudomonas aeruginosa. The settings on record: isolate Paebeta-03.
Experiment [2] relates to Pseudomonas aeruginosa. As to conditions: isolate Paebeta-27.
The test system of experiment [3] is Pseudomonas aeruginosa. The settings on record: isolate Paebeta-18.
Experiment [4] deals with Pseudomonas aeruginosa. The settings on record: isolate Paebeta-24.
For experiment [5], the system named is Pseudomonas aeruginosa. The settings on record: isolate Paebeta-15.

≈ marks a conversion by molar mass, not a printed value.

The MIC is the least concentration at which growth counts as inhibited. High values mean weaker potency, low ones greater potency. Consider `CO/N=C(\C(=O)N[C@@H]1C(=O)N2C(C(=O)[O-])=C(C[N+]3(C)CCCC3)CS[C@H]12)c1csc(N)n1`, for which the MIC came out at 64 µg/mL (≈ 133 µM) in the experiment with Pseudomonas aeruginosa [1]; 64 µg/mL (≈ 133 µM) with Pseudomonas aeruginosa [2]; 128 µg/mL (≈ 266 µM) in the experiment with Pseudomonas aeruginosa [3]; 64 µg/mL (≈ 133 µM) with Pseudomonas aeruginosa [4]; 128 µg/mL (≈ 266 µM) with Pseudomonas aeruginosa [5].
For `C[C@H]1[C@H](NC(=O)/C(=N\OC(C)(C)C(=O)O)c2csc(N)n2)C(=O)N1S(=O)(=O)O` [AZTREONAM], in the experiment on Pseudomonas aeruginosa [3], the MIC was found to be 128 µg/mL (≈ 294 µM).
